Converted amounts (≈) assume the structure as drawn.
Tests used:
P. aeruginosa ATCC 27853 = assay: microbe, parasite or virus in culture; format: cell-based, Pseudomonas aeruginosa; conditions: P. aeruginosa ATCC 27853, MHB
Method: (§1) The antibacterial activity of TP10-NH2-based conjugates, as well as its constituents, was evaluated by microdilution assay in Mueller Hinton broth, MHB (Table 1). […] There are, however, some exceptions. […] Its activity against two other tested bacteria was somewhat lower though.
(§2) The antibacterial activity (bacteriostatic: MIC and bactericidal: MBC) of the tested compounds was determined in MHB (Mueller Hinton Broth, Sigma Aldrich, St. Louis, MO, USA) using a serial two-fold dilution method in 96-well microtiter plates according to CLSI recommendations, described in M07-A10 document. The exact conditions have been described previously. All experiments were performed in three replicates. The MIC90 and MIC50 values were defined as the concentrations of compounds tested that caused a 90% or 50% reduction of growth, respectively, comparing to the drug-free control.

HEK 293 [1] = assay: cells; format: cell-based, human; conditions: HEK 293, 72 h, MTT
Method: (§3) Among the conjugates, LVXC-S-S-CTP10-NH2 (5) was the least cytotoxic. […] In the case of HEK 293 and LLC-PK1 cells, the IC50 values of 5 were nearly four times higher. […] Additionally, we noted that the cancer cells Hep G2 were less sensitive to the action of the given compounds than the non-cancer cells (HEK 293 and LLC-PK1).
(§4) Cytotoxicity was assessed against three mammalian cell lines: LLC-PK1, Hep G2, and HEK 293. Multiwell (96–well) plates were seeded at 7000 cells/well in Medium 199 supplemented with 7.5% FBS, MEM Eagle’s medium supplemented with 10% FBS, or DMEM medium supplemented with 10% FBS, respectively. All media were supplemented with L-glutamine and antibiotics (penicillin/streptomycin). Cells were allowed to attach overnight. Drugs were dissolved in cell culture medium and added to wells in 100-µL aliquots of 2× concentrated solutions, in triplicates. To control wells, 100 µL of the medium were added. Cells were incubated with the studied compounds for 72 h at 37 °C and 95%/5% or 90%/10% (HEK 293 cells) CO2 atmosphere. Then, 20-µL aliquots of MTT solution in PBS (4 mg/mL) were added to all wells and plates were incubated further for 3 h in 37 °C. Formazan crystals formed were dissolved in 100 µL of DMSO and the absorbance of the solutions was measured using a multiwell plate reader (Spark, Tecan, Männedorf, Switzerland) at λ = 540 nm. Cytotoxicity was determined compared to the drug-free control. All experiments were performed in triplicates.

Hep G2 = assay: cells; format: cell-based, human; conditions: Hep G2, 72 h, MTT
Method: as §3, §4

S. aureus ATCC 29213 = assay: microbe, parasite or virus in culture; format: cell-based, Staphylococcus aureus; conditions: S. aureus ATCC 29213, MHB
Method: as §1, §2

LLC-PK1 = assay: cells; format: cell-based, pig; conditions: LLC-PK1, 72 h, MTT
Method: as §3, §4

[2] = tested on: S. epidermidis ATCC 12228; assay: microbe, parasite or virus in culture; format: cell-based, Staphylococcus epidermidis; conditions: S. epidermidis ATCC 12228, MHB
Method: as §1, §2

bacteria = assay: Influence of salts: antibacterial activity in MHB2 compared to MHB; format: cell-based; conditions: MHB2: Ca(II) 20–25 mg/L, Mg(II) 10–12.5 mg/L
Method: Additionally, for selected compounds, the aspect of the influence of salts present in the medium on antimicrobial activity was evaluated. […] In the salt-enriched medium, the MIC values determined for TP10-NH2 were up to 40-fold higher than those found in MHB. The phenomenon of reduction of the growth inhibitory activity of antimicrobial peptides at a high salt concentration was previously evidenced by other researchers. It may cause severe limitations for AMPs’ usage as therapeutic agents because of the risk of potential inactivation by salts present in the human body.

E. coli ATCC 25922 = assay: microbe, parasite or virus in culture; format: cell-based, Escherichia coli; conditions: E. coli ATCC 25922, MHB
Method: as §1, §2

[3] = tested on: C. albicans Δopt1Δopt5Δptr2Δptr22
HEK 293 [4] = assay: ROS generation (CM-H2DCFDA, flow cytometry); format: cell-based, human; conditions: positive cells in 24 h, class
Method: (§5) In the positive controls treated with H2O2, the fraction of ROS-positive cells exceeded 75%. […] Strikingly, in HL-60, a biologically significant effect was observed almost immediately (after 15 min of incubation). The same was noted after 1 h in the HEK 293 cell line. […] Similarly, conjugates 4 and 5 generated ROS at the low level (less than 15% for HL-60 and less than 20% for HEK 293) (manuscript in preparation). […] For HL-60, the critical level of ROS was noted after 15 min of incubation.
(§6) ROS generation activity was evaluated as described previously. Briefly, HEK 293 cells were seeded on 35-mm Petri dishes in the amount of 15,000 cells per plate for 24 h in DMEM medium. […] Positive controls contained 250 µM H2O2, while negative controls were without any additions. After 0.5, 2.5, 5.5, and 24 h of incubation at 37 °C, the CM-H2DCFDA molecular probe (Thermo Fischer Scientific, Waltham, USA) was added to the plates and incubation was continued for another 0.5 h. The HEK 293 cells were detached with 0.05% trypsin solution in PBS and HBSS (Hank’s Balanced Salt Solution) and suspended in fresh DMEM medium. All samples were additionally stained with 7-AAD (7-aminoactinomycin D, 0.8 µg/mL) and immediately analysed with a Guava easyCyte flow cytometer (Merc, Burlington, USA). The determinations were performed in triplicates.

HL-60 = assay: ROS generation (CM-H2DCFDA, flow cytometry); format: cell-based, human; conditions: positive cells in 24 h, class
Method: as §5, §6

human red blood cells = assay: Hemolysis assay; conditions: 1 h, 37 °C
[5] = tested on: Gram-positive and Gram-negative bacteria; format: cell-based; conditions: MHB, four bacteria
Method: as §1, §2

HL-60 and HEK 293 cells = assay: ROS generation, statements not split by cell line; format: cell-based, human; conditions: cell line not specified
Method: as §5, §6

[6] = tested on: S. aureus ATCC 25,923 cells; assay: Stability inside bacterial cells (LC-MS of cell lysate)
[7] = molecular target: T1, yeast DNA topoisomerase II (Saccharomyces cerevisiae, UniProt P06786); assay: biochemical; format: biochemical; conditions: class; read-out: Topoisomerase II Inhibition
T1 construct: purchased Inspiralis (Norwich, UK)
T1 sequence (P06786 whole entry): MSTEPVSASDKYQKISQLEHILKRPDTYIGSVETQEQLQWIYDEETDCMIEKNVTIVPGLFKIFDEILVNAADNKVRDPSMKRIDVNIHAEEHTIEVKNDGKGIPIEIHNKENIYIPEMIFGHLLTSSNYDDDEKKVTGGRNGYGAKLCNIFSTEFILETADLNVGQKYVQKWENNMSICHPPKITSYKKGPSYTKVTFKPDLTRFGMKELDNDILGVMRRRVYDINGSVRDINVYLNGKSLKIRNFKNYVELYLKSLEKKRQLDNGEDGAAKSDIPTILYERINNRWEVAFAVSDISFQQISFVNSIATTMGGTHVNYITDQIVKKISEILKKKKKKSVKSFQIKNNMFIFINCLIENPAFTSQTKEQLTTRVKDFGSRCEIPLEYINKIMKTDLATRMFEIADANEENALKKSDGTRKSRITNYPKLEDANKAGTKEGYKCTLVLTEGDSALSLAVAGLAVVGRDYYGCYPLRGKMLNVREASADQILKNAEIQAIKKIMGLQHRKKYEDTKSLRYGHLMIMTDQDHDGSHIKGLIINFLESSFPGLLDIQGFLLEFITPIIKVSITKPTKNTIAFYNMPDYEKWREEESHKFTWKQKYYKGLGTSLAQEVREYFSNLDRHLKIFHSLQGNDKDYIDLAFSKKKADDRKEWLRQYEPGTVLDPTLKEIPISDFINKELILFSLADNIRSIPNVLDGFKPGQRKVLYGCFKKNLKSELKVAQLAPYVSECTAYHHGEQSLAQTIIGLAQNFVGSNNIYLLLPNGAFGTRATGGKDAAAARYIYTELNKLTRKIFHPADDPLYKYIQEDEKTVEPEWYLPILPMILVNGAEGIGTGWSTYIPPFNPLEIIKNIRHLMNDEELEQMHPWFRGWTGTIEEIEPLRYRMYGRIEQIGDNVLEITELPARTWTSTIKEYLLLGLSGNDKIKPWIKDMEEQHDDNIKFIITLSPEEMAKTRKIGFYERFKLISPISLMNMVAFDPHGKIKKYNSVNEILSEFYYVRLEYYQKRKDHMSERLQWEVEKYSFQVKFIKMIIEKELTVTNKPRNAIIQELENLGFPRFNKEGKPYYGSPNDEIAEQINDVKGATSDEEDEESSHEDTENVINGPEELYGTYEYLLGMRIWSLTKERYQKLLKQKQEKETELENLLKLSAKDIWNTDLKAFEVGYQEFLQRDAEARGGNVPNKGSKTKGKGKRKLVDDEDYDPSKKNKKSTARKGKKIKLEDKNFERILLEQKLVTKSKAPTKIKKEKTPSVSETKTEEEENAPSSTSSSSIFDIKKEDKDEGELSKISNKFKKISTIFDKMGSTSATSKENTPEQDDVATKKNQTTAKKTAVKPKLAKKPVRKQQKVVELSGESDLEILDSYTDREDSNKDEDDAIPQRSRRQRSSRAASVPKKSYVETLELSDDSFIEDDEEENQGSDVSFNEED

[8] = Stability in PBS and growth media; format: physicochemical; conditions: phosphate-buffered saline and growth media used for antibacterial and antifungal tests
Excerpt: CIP-S-S-TP10-NH2 was stable in phosphate-buffered saline (PBS) and growth media used for the determination of antibacterial and antifungal in vitro activity.

CC[C@H](C)[C@H](NC(=O)[C@H](CCCCN)NC(=O)[C@H](CCCCN)NC(=O)[C@H](C)NC(=O)[C@H](CC(C)C)NC(=O)[C@H](C)NC(=O)[C@H](C)NC(=O)[C@H](CC(C)C)NC(=O)[C@H](C)NC(=O)[C@H](CCCCN)NC(=O)[C@H](CC(C)C)NC(=O)[C@H](CC(N)=O)NC(=O)[C@@H](NC(=O)[C@H](CCCCN)NC(=O)CNC(=O)[C@H](CC(C)C)NC(=O)[C@H](CC(C)C)NC(=O)[C@H](Cc1ccc(O)cc1)NC(=O)CNC(=O)[C@H](C)NC(=O)CN1CCN(c2cc3c(cc2F)c(=O)c(C(=O)O)cn3C2CC2)CC1)[C@@H](C)CC)C(=O)N[C@@H](CC(C)C)C(N)=O [Compound 1, CIP-CH2CO-TP10-NH2]
MIC50 (P. aeruginosa ATCC 27853): >100 µM
MIC90 (P. aeruginosa ATCC 27853): >100 µM
IC50 (HEK 293 [1]): 10.8 ± 1.87 µM
IC50 (Hep G2): 21.7 ± 2.18 µM
MIC50 (C. albicans SC 5314): 50 µM (≈ 128 µg/mL)
MIC90 (C. albicans SC 5314): 100 µM (≈ 255 µg/mL)
MIC50 (S. aureus ATCC 29213): 12.5 µM (≈ 31.9 µg/mL)
MIC90 (S. aureus ATCC 29213): 12.5 µM (≈ 31.9 µg/mL)
IC50 (LLC-PK1): 17.8 ± 1.93 µM
MIC50 [2]: 6.25 µM (≈ 16 µg/mL)
MIC90 [2]: 12.5 µM (≈ 31.9 µg/mL)
Influence of salts (MHB2 vs MHB) on antibacterial activity (bacteria): slight decrease of antibacterial activity
MIC50 (C. krusei DSM 6128): 50 µM (≈ 128 µg/mL)
MIC50 (E. coli ATCC 25922): 25 µM (≈ 63.8 µg/mL)
MIC90 (E. coli ATCC 25922): 25 µM (≈ 63.8 µg/mL)
MIC50 [3]: 100 µM (≈ 255 µg/mL)
MIC90 [3]: 200 µM (≈ 511 µg/mL)
MIC50 (C. glabrata DSM 11226): >200 µM
MIC50 (C. albicans Gu4): 50 µM (≈ 128 µg/mL)

CC[C@H](C)[C@H](NC(=O)[C@H](CCCCN)NC(=O)[C@H](CCCCN)NC(=O)[C@H](C)NC(=O)[C@H](CC(C)C)NC(=O)[C@H](C)NC(=O)[C@H](C)NC(=O)[C@H](CC(C)C)NC(=O)[C@H](C)NC(=O)[C@H](CCCCN)NC(=O)[C@H](CC(C)C)NC(=O)[C@H](CC(N)=O)NC(=O)[C@@H](NC(=O)[C@H](CCCCN)NC(=O)CNC(=O)[C@H](CC(C)C)NC(=O)[C@H](CC(C)C)NC(=O)[C@H](Cc1ccc(O)cc1)NC(=O)CNC(=O)[C@H](C)NC(=O)c1cn(C2CC2)c2cc(N3CCNCC3)c(F)cc2c1=O)[C@@H](C)CC)C(=O)N[C@@H](CC(C)C)C(N)=O [Compound 2, CIP-TP10-NH2]
ROS HEK 293 (HEK 293 [4]): ++ (++ <10% positive cells in 24 h)
ROS HL-60 (HL-60): ++ (++ <10% positive cells in 24 h)
IC50 (HEK 293 [1]): 10.4 ± 1.39 µM
IC50 (Hep G2): 11.5 ± 2.03 µM
MIC50 (C. albicans SC 5314): 12.5 µM (≈ 31.2 µg/mL)
MIC90 (C. albicans SC 5314): 12.5 µM (≈ 31.2 µg/mL)
MIC50 (S. aureus ATCC 29213): 0.8 µM (≈ 2 µg/mL)
MIC90 (S. aureus ATCC 29213): 0.8 µM (≈ 2 µg/mL)
MHC50 (concentration causing 50% hemolysis) (human red blood cells): 25 µg/mL
MHC50 (concentration causing 50% hemolysis) (human red blood cells; converted from μg/mL): ~ 10 μM
IC50 (LLC-PK1): 27.1 ± 1.82 µM
MIC50 [2]: 1.6 µM (≈ 3.99 µg/mL)
MIC90 [2]: 1.6 µM (≈ 3.99 µg/mL)
MIC values, range over tested bacteria [5]: 0.8 to 3.125 µM
ROS generation (HL-60 and HEK 293 cells): no ROS generation was observed
MIC50 (C. krusei DSM 6128): 50 µM (≈ 125 µg/mL)
MIC50 (E. coli ATCC 25922): 1.6 µM (≈ 3.99 µg/mL)
MIC90 (E. coli ATCC 25922): 1.6 µM (≈ 3.99 µg/mL)
MIC50 [3]: 6.25 µM (≈ 15.6 µg/mL)
MIC90 [3]: 12.5 µM (≈ 31.2 µg/mL)
MIC50 (C. glabrata DSM 11226): >200 µM
MIC50 (C. albicans Gu4): 25 µM (≈ 62.4 µg/mL)

CC[C@H](C)[C@H](NC(=O)[C@H](CCCCN)NC(=O)[C@H](CCCCN)NC(=O)[C@H](C)NC(=O)[C@H](CC(C)C)NC(=O)[C@H](C)NC(=O)[C@H](C)NC(=O)[C@H](CC(C)C)NC(=O)[C@H](C)NC(=O)[C@H](CCCCN)NC(=O)[C@H](CC(C)C)NC(=O)[C@H](CC(N)=O)NC(=O)[C@@H](NC(=O)[C@H](CCCCN)NC(=O)CNC(=O)[C@H](CC(C)C)NC(=O)[C@H](CC(C)C)NC(=O)[C@H](Cc1ccc(O)cc1)NC(=O)CNC(=O)[C@H](C)NC(=O)CCSSCCC(=O)N1CCN(c2cc3c(cc2F)c(=O)c(C(=O)O)cn3C2CC2)CC1)[C@@H](C)CC)C(=O)N[C@@H](CC(C)C)C(N)=O [Compound 3, CIP-S-S-TP10-NH2]
MIC50 (P. aeruginosa ATCC 27853): 0.8 µM (≈ 2.15 µg/mL)
MIC90 (P. aeruginosa ATCC 27853): 1.6 µM (≈ 4.3 µg/mL)
ROS HEK 293 (HEK 293 [4]): ++ (++ <10% positive cells in 24 h)
ROS HL-60 (HL-60): + (+ <15% positive cells in 24 h)
Stability inside bacterial cells [6]: reduced inside the cell
IC50 (HEK 293 [1]): 13.1 ± 1.22 µM
IC50 (Hep G2): 19 ± 2.08 µM
IC50 [7]: < 50 µM
Stability in PBS and growth media [8]: stable
MIC50 (C. albicans SC 5314): 6.25 µM (≈ 16.8 µg/mL)
MIC90 (C. albicans SC 5314): 25 µM (≈ 67.2 µg/mL)
MIC50 (S. aureus ATCC 29213): 0.8 µM (≈ 2.15 µg/mL)
MIC90 (S. aureus ATCC 29213): 0.8 µM (≈ 2.15 µg/mL)
IC50 (LLC-PK1): 16.8 ± 2.62 µM
MIC50 [2]: 0.8 µM (≈ 2.15 µg/mL)
MIC90 [2]: 0.8 µM (≈ 2.15 µg/mL)
ROS generation (HL-60 and HEK 293 cells): no ROS generation was observed
MIC50 (C. krusei DSM 6128): 25 µM (≈ 67.2 µg/mL)
MIC50 (E. coli ATCC 25922): 0.0125 µM (≈ 0.0336 µg/mL)
MIC90 (E. coli ATCC 25922): 0.025 µM (≈ 0.0672 µg/mL)
MIC50 [3]: 12.5 µM (≈ 33.6 µg/mL)
MIC90 [3]: 25 µM (≈ 67.2 µg/mL)
MIC50 (C. glabrata DSM 11226): >200 µM
MIC50 (C. albicans Gu4): 6.25 µM (≈ 16.8 µg/mL)
